A word on the IC50: it is the concentration that inhibits the measured activity by half.

This is an account of results in article PMC9179341, “Design of New Potent and Selective Thiophene-Based KV1.3 Inhibitors and Their Potential for Anticancer Activity” (Cancers, 2022).

Holding throughout (format): cell-based
One experiment concerns Panc-1 tumor spheroids. Kind of experiment: Apoptosis (caspase 3/7 activity) in Panc-1 tumor spheroids. As to conditions: with 8.9 µM cycloheximide. As to the method:
(§1) Cell lines Panc-1 (ACC 783) and Colo-357 (CVCL_0221) were obtained through the validated collection of the pHioniC consortium (MSC-ITN 813834). Both cell lines were grown in RPMI1640, supplemented with 1 mM sodium pyruvate and 1% Glutamax (all Gibco Thermo-Fisher, Waltham, MA USA) 10%FBS (BioChrom, Berlin, Germany), at 5% CO2 and 37 °C in a humidified atmosphere.
Spheroids were cultured in round bottom ultra-low attachment 96-well plates (Corning). The optimal seeding densities were empirically determined (8000 cells/well for Colo-357 or 10,000 cells/well for Panc-1 spheroids. The cells were suspended in 2% Matrigel (Corning), centrifuged at 1000× g for 10 min and the spheroids were allowed to form in the incubator. Once the spheroids were formed, the treatments indicated together with 8.9 µM cycloheximide (as apoptosis sensitizer) were added and apoptosis was determined by live imaging in the Incucyte system in real time for approximately 60 h using Caspase-3/7 green reagent (Sartorius) as a reporter of apoptosis, which crosses the cell membrane and is cleaved by the activated Caspase-3/7, resulting in the fluorescent staining of nuclear DNA. Apoptosis on Panc-1 tumor spheroids is presented as integrated green fluorescence in the whole spheroid.

The target in a further experiment is KV1.3 (Homo sapiens, UniProt P22001). In words: KV1.3 inhibition, manual whole-cell patch-clamp on Ltk^− cells. The arrangement: expressed in transfected cells; host or cells: Ltk- cells (mouse fibroblasts), transient transfection with lipofectamine 2000.
KV1.3, sequence (P22001 whole entry): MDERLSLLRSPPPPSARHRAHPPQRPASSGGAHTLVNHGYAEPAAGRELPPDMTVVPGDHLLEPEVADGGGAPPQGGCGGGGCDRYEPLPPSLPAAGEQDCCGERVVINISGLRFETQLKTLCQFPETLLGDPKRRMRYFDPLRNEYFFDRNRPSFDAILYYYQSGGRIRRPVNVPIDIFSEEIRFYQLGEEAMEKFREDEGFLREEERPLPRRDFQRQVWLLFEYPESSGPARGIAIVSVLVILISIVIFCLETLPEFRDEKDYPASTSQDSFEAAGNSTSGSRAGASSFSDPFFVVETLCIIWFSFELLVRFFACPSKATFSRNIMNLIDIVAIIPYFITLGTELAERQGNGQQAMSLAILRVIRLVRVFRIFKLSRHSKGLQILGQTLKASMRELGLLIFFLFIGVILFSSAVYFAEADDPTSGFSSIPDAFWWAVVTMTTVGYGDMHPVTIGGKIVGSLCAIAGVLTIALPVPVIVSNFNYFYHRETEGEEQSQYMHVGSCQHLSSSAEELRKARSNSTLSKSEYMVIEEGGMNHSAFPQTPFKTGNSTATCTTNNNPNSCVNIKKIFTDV
The test system of a further experiment is Colo-357 cells. Kind of experiment: Cell proliferation (culture confluency, IncuCyte) in 2D culture, Colo-357. Conditions: 100 µM, confluence by live cell imaging. The procedure:
as §1
(§2) For cell proliferation assays, cells were seeded at a density of 10,000 cells/well in 96-well flat bottom culture plates (Corning, Kaiseslautern, Germany) and proliferation was measured through culture confluency using an IncuCyte device (Sartorius, Göttingen, Germany). Every hour, two phase contrast images per well were acquired, and a confluency mask was generated by training the analysis algorithm using representative images. Every image was then analyzed using the obtained parameters to determine culture confluency. Treatments were then added when cells reached a confluency of ~30% (Panc-1) or ~55% (Colo-357), and proliferation was determined for the following 60 h. Proliferation is reported as confluency increase with respect to the start of the treatment.

For the next experiment, the target named is KV1.2 (Homo sapiens, UniProt P16389). In words: Selectivity, HiClamp Xenopus laevis heterologous expression system, KV1.2. Conditions: for IC50: HiClamp, oocytes, NA = no significant inhibition, no IC50 determined; for Effect on KV1.2 channel: at a concentration of the compound's IC50 value for KV1.3. As to the method:
(§3) Ion channels (Kv1.x, Kv2.1, Kv4.2, Kv10.1) were expressed in Xenopus laevis oocytes by linearization of the plasmids and subsequent in vitro transcription using a commercial T7 or SP6 mMESSAGE mMACHINE transcription kit (Ambion, Carlsbad, California, USA). Defolliculated Xenopus oocytes were then injected with 20–50 nL of the cRNA at a concentration of 1 ng/nL using a micro-injector (Drummond Scientific1, Broomall, PA, USA). The oocytes were incubated in a solution containing (in mM): NaCl, 96; KCl, 2; CaCl2, 1.8; MgCl2, 2 and HEPES, 5 (pH 7.5), supplemented with 50 mg/L gentamycin sulfate and 90 mg/L theophylline. After ex vivo translation, the ion channels were correctly inserted in the cell membrane of the oocytes.
(§4) Two-electrode voltage-clamp recordings were performed at room temperature (18–22 °C) using a Geneclamp 500 amplifier (Molecular Devices, San Jose, CA, USA) and pClamp data acquisition (Axon Instruments, Union City, CA, USA) and using an integrated digital TEVC amplifier controlled by HiClamp, an automated Voltage-Clamp Screening System (Multi Channel Systems MCS GmbH, Reutlingen, Germany). Whole-cell currents from oocytes were recorded 1–4 days after injection. The bath solution composition was ND96 (in mM): NaCl, 96; KCl, 2; CaCl2, 1.8; MgCl2, 2 and HEPES, 5 (pH 7.5). Voltage and current electrodes were filled with a 3 M solution of KCl in H2O. Resistances of both electrodes were kept between 0.5 and 1.5 MΩ. The elicited Kv1.x, Kv2.1, Kv4.2 and Kv10.1 currents were filtered at 0.5 kHz and sampled at 2 kHz using a four-pole low-pass Bessel filter. Leak subtraction was performed using a P/4 protocol.
(§5) For the electrophysiological analysis of the compounds, a number of protocols were applied from a holding potential of −90 mV. Currents for Kv1.x, Kv2.1, Kv4.2 and Kv10.1 were evoked by 1 s depolarizing pulses either to 0 mV or to a range of voltage steps between −80 mV and +40 mV. For the analysis of the data, only the inhibition at the 0 mV step was used. The concentration dependency of all compounds was assessed by measuring the current inhibition in the presence of increasing compound concentrations. […] From this stock solution, adequate dilutions with a maximum of 0.5% DMSO were made for testing.
(§6) All electrophysiological data (Figure S1) are presented as means ± S.E.M of n ≥ three independent experiments unless otherwise indicated. All data were analyzed using pClamp Clampfit 10.4 (Molecular Devices, Downingtown, PA, USA), OriginPro 9 (Originlab, Northampton, MA, USA), GraphPad Prism 8 software (GraphPad Software, Inc., San Diego, CA, USA) and DataMining (Multi Channel Systems MCS GmbH, Reutlingen, Germany). The Dunnett test and one-way ANOVA were performed to calculate the significance of the induced inhibition compared to the control.

Another experiment deals with KV1.1 (Rattus norvegicus, UniProt P10499). Kind of experiment: Selectivity, HiClamp Xenopus laevis heterologous expression system, KV1.1. As to conditions: at a concentration of the compound's IC50 value for KV1.3. The procedure:
as §3, §4, §5, §6

The target of another experiment is KV1.5 (Homo sapiens, UniProt P22460). Kind of experiment: Selectivity, HiClamp Xenopus laevis heterologous expression system, KV1.5. As to conditions: for IC50: HiClamp, oocytes, NA = no significant inhibition, no IC50 determined; for Effect on KV1.5 channel: at a concentration of the compound's IC50 value for KV1.3. As to the method: as §3, §4, §5, §6
KV1.5, sequence (P22460 whole entry): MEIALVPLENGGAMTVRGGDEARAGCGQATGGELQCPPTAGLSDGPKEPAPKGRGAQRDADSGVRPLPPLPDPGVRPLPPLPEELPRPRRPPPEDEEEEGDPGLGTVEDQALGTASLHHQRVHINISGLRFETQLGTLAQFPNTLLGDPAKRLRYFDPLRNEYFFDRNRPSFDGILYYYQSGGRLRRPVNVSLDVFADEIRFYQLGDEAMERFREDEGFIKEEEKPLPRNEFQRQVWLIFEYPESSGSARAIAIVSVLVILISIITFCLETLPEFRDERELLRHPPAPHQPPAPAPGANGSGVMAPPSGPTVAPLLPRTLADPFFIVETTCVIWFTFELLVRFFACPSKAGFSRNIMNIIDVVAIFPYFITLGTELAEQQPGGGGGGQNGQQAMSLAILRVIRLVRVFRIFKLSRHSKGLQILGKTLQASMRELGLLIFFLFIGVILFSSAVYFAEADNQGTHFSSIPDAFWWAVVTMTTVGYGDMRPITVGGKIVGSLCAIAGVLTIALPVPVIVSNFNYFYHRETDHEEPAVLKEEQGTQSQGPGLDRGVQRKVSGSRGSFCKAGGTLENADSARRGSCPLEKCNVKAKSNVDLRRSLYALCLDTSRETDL
In another experiment the test system is Panc-1 cells. Kind of experiment: Cell proliferation (culture confluency, IncuCyte) in 2D culture, Panc-1. As to conditions: 100 µM, confluence by live cell imaging. As to the method:
as §1, §2

“Also recorded” adds a separate entry of the source.

KV1.2, sequence (P16389 whole entry): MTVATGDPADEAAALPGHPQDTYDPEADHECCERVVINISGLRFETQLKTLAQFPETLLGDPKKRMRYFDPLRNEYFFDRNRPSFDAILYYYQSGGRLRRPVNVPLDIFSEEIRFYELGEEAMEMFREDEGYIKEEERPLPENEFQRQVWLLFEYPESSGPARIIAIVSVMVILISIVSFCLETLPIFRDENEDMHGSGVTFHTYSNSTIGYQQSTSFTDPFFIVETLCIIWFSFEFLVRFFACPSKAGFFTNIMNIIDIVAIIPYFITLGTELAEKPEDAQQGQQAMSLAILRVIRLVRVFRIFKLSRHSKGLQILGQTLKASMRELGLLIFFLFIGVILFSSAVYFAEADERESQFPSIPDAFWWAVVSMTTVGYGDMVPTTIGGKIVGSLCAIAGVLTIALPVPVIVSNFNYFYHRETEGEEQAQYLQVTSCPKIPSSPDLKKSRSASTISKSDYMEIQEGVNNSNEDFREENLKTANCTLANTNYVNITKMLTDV
KV1.1, sequence (P10499 whole entry): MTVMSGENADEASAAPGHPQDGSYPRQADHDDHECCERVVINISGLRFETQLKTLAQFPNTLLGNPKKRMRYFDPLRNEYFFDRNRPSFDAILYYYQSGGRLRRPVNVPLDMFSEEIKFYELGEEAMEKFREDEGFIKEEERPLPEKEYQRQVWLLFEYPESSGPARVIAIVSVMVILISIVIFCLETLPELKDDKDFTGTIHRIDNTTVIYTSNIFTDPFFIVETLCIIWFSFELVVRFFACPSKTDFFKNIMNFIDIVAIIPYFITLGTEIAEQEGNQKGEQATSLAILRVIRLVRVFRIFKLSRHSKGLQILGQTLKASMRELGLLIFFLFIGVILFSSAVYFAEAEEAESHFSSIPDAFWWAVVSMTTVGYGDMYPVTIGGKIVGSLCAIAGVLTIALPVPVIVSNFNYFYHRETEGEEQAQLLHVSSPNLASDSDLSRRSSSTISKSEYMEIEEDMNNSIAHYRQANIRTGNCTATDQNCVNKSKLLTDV
Description for KV1.3: Ltk^− cells were cultured in Dulbecco’s Modified Eagle Medium (DMEM) supplemented with 10% horse serum and 1% penicillin/streptomycin (Invitrogen, Waltham, CA, USA). […] The coding sequence of hKv1.3 was cloned in a pEGFP plasmid without removing the stop codon (i.e., eGFP was not transcribed). Therefore, during transfection 0.5 µg of pEGFP plasmid (expressing eGFP) was added as transfection marker Cells were collected 24h post-transfection using a 0.05% trypsin-EDTA solution (Thermo Fisher Scientific, Waltham, MA, USA) and transferred to the recording chamber mounted on the stage of an inverted Nikon Eclipse TE2000 fluorescence microscope (Nikon, Minato, Japan). The compounds were dissolved in 100% DMSO and stock solutions were stored at -20°C. Before use, the stock concentrations were diluted with extracellular recording solution to appropriate concentrations, making sure that the final DMSO concentration never exceeded 0.1%. A 0.1% DMSO solution was prepared as a vehicle control.
All recordings were conducted at room temperature (20–23 °C) in the whole-cell configuration using an axopatch 200b amplifier (Molecular Devices, San Jose, CA, USA). Applied voltage pulse protocols and current recordings were controlled with pClamp 10 software and digitized using an axon digidata 1440 (Molecular Devices, San Jose, CA, USA). The cells in the recording chamber were continuously superfused with an extracellular solution (containing in mM): NaCl 145, KCl 4, MgCl2 1, CaCl2 1.8, HEPES 10, and glucose 10 (adjusted to pH 7.35 with NaOH). Patch pipettes were pulled from borosilicate glass (World Precision Instruments, Sarasota, FL, USA), using a P-2000 puller (Sutter Instruments, Novato, CA, USA), with resistances ranging from 1.5–2 MΩ. These pipettes were backfilled with an intracellular solution (containing in mM): KCl 110, K2ATP 5, MgCl2 2, HEPES 10, and K4BAPTA 5 (adjusted to pH 7.2 with KOH). Junction potentials were zeroed with the filled pipette in the extracellular solution of the recording chamber. A series resistance compensation of 80% was employed. Recordings were passed through a 5 kHz low-pass filter while being sampled at 10 kHz. A single step from holding potential (−80 mV) to +40 mV was utilized to monitor KV1.3 current inhibition. The pulse duration was 200 ms with an interpulse interval of 15 s. […]
The data was analyzed with pClamp 10 software (Molecular Devices, San Jose, CA, USA), and the dose-response curves shown were made using Sigmaplot 11.0 (Systat software, Palo Alto, CA USA). […] Results are expressed as mean ± SEM, with n being the number of cells analyzed. EC50 values were determined by fitting the Hill equation to the dose-response curve.

For `COc1ccccc1C(=O)NCC1(c2cccs2)CCOC1` (stereo not shown) [Compound 14], the “Induction of apoptosis in Panc-1 spheroids” value (shortened to “Induction of apoptosis”) with Panc-1 tumor spheroids is given as “did not induce detectable levels of apoptosis”. The IC50 against KV1.3 turned out to be 1330 ± 200 nM. Also, the “Growth of Colo-357 cells” value in the experiment on Colo-357 cells is on record as “not significantly affected; also recorded: unaffected”. For the same molecule, on KV1.2, the midpoint of inhibition, the IC50, lay at 4000 ± 200 nM and the “Effect on KV1.2 channel” value was “significant effects”. Further, the “Effect on KV1.1 channel” value at KV1.1 was “significant effects”. Further, on KV1.5, half-maximal inhibition (IC50) required 2070 ± 130 nM and the “Effect on KV1.5 channel” value was “significant effects”. Also, the “Growth (proliferation) inhibition of Panc-1 cells” value (shortened to “Growth (proliferation) inhibition”) in the experiment on Panc-1 cells was “significantly inhibited; also recorded: strong inhibition”.

For the molecule `COc1ccc(F)cc1C(=O)NCC1(c2ccccc2)CCOCC1` [Compound 37], in the experiment with Panc-1 tumor spheroids, the “Induction of apoptosis” value is given as “did not induce detectable levels of apoptosis”. For the same molecule, the IC50 against KV1.3 is 1350 ± 40 nM. The “Growth of Colo-357 cells” value in the experiment with Colo-357 cells was “not significantly affected; also recorded: unaffected”. At KV1.2, the IC50 was found to be 2340 ± 260 nM and the “Effect on KV1.2 channel” value is recorded as “significantly inhibited”. Moreover, the “Effect on KV1.1 channel” value on KV1.1 is listed as “significantly inhibited”. Further, at KV1.5, it took 8640 ± 30 nM to reach half-maximal inhibition (IC50) and the “Effect on KV1.5 channel” value is on record as “significantly inhibited”. The “Growth (proliferation) inhibition” value in the experiment on Panc-1 cells was “significantly inhibited; also recorded: strong inhibition”.

As for `COc1ccccc1C(=O)NCC1(c2cccs2)CCOCC1` [Compound 43], the “Induction of apoptosis” value with Panc-1 tumor spheroids is reported as “did not induce detectable levels of apoptosis”. Moreover, on KV1.3, the IC50 is 1020 ± 70 nM. Moreover, the “Growth of Colo-357 cells” value in the experiment with Colo-357 cells is “not significantly affected; also recorded: unaffected”. Moreover, on KV1.2, half-maximal inhibition (IC50) was put at 2760 ± 560 nM and the “Effect on KV1.2 channel” value is listed as “significant effects”. The “Effect on KV1.1 channel” value at KV1.1 was “significant effects”. Further, at KV1.5, inhibition was half-maximal at 4330 ± 10 nM (IC50) and the “Effect on KV1.5 channel” value was “significant effects”. In addition, the “Growth (proliferation) inhibition” value in the experiment with Panc-1 cells is on record as “significantly inhibited; also recorded: strong inhibition”.

Take `COc1ccccc1C(=O)NCC1(c2ccsc2)CCOCC1` [Compound 44]: in the experiment on Panc-1 tumor spheroids, the “Induction of apoptosis” value is on record as “did not induce detectable levels of apoptosis”. At KV1.3, this molecule returned an IC50 of 950 ± 240 nM. The “Growth of Colo-357 cells” value in the experiment with Colo-357 cells is given as “not significantly affected; also recorded: unaffected”. In addition, the “Effect on KV1.2 channel” value on KV1.2 is reported as “no significant effects”. For the same molecule, the “Effect on KV1.1 channel” value on KV1.1 is “no significant effects”. In addition, the “Effect on KV1.5 channel” value at KV1.5 is given as “no significant effects”. For the same molecule, in the experiment with Panc-1 cells, the “Growth (proliferation) inhibition” value is listed as “significantly inhibited; also recorded: moderate growth inhibition”.
